Measurements from patent publication US9765063B2, “Amido compounds as RORγt modulators and uses thereof” (New York University, priority 2011, dated 2017).
“Also recorded” adds a separate entry of the source. Read-outs that look alike come from different tables or passages of the source.

Legend:
Type in all cases: cell-based
RORγt [1] = target: T1, RORγt (Mus musculus, UniProt P51450); assay: RORγt S2 cell reporter assay (Gal4-RORγt fusion, UAS-luciferase)
T1 construct: expressed in transfected cells; the other entry of the earlier key: GAL4 (P04386, Regulatory protein GAL4)
T1 sequence (P51450 with tags, fused parts or gaps): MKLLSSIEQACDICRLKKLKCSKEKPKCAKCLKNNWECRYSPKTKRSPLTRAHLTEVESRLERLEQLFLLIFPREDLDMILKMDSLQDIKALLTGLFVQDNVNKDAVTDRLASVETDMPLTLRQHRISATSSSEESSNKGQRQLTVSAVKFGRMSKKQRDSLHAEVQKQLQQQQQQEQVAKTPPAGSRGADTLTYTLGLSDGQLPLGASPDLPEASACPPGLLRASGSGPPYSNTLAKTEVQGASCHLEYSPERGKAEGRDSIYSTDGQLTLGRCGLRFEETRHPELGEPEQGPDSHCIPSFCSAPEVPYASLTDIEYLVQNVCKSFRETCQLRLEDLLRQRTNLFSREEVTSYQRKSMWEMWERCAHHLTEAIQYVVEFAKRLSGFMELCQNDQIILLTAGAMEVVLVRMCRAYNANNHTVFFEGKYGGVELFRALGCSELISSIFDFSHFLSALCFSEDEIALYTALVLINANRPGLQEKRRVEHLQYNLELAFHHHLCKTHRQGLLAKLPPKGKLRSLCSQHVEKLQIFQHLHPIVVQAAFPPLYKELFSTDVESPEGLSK
From the text: Methods: The Drosophila S2 cell line was originally purchased from Invitrogen and was maintained in Schneider's medium supplemented with 10% heat-inactivated bovine fetal calf serum and antibiotics (Invitrogen). […] The resulting chimeric gene was subcloned into the copper inducible pMT/V5-His A vector (available from Invitrogen).
Renilla luciferase construct under the polIII promoter was obtained from Dr. Dasgupta's laboratory (NYU medical center). In order to generate stable cell lines, cells were co-transfected with pMT-G4DBD-RORγt, pMT-G4DBD-RORα, pMT-G4DBD-DHR3, or pMT-G4DBDVP16 and pHygro plasmids (Invitrogen) and screened for resistant colonies in the presence of hygromycin (0.3 mg/mL). […] Using similar methods, stable clones with genomic integration of the luciferase reporters and other reporters were generated such as pMT-RORα_luc, pMT-DHR3_luc, or pMT-VP16_luc.
Methods: 600 G4DBD-RORγ/γt-luc reporter (#25) or G4DBD-VP16-luc reporter cells were distributed into each well of 1,536-well white bottom plates in 4 μl S2 cell culture volume containing hygromicin (300 μg/ml) and puromycin (2 μg/ml). […] After one-hour incubation, 1 of culture medium solution containing copper sulfate (to final 0.7 mM) and 10 μM RORγ/γt antagonists were added to each well. After 20-hour incubation at ambient temperature, 1.5 μl firefly luciferase detection mix was added and the luciferase activities were measured in 10 min. ViewLux luminometers were used for measuring luciferase signal.
A cell-based reporter assay was used to detect RORγt-mediated activity. This assay, called RORγt employed Drosophila Schneider cells that were stably transfected with two vectors: a gene expressing a fusion of the Gal4 DNA binding domain and RORγt transactivation domain under the control of the metallothionine promoter and a Photinus luciferase reporter regulated by the Gal4 binding site enhancer, UAS. […] Cells (600/well) were dispensed into white solid 1536-well plates (Greiner) using a solenoid-based dispenser. Following transfer of […] compound or DMSO vehicle by a pin tool, the plates were incubated 1 hr at ambient temperature, and 1 uL/well copper sulfate (700 uM final concentration) was added. The plates were centrifuged 15 s at 1000 RPM and incubated 20 hr at ambient temperature. After addition of 1.5 uL Photinus luciferase detection reagent, the plates were incubated 10 min at ambient temperature and then read by a ViewLux (Perkin Elmer) to detect luminescence. […] Efficacy is expressed as % of the maximal response of control inhibitor (Digoxin), set at 100%.

[2] = test system: mouse Th17 cell differentiation; assay: Th17 assay: mouse Th17 polarization (IL-17a producing cells, FACS); settings: for IC50: naive mouse CD4 T cells, TGFβ and IL6, compounds added Day 1, analyzed Day 4, read-out: Th 17 IC50
Experimental: (§1) Percentage of DMSO treated IL-17a producing cells was set at 100. Naive mouse CD4 T cells (CD25^−, CD62L^+, and CD44^low-int) were sorted and cultured with CD3/CD28 stimulatory antibodies in the presence of TGFβ (0.1 ng/ml) and IL6 (20 ng/ml). Compounds were added on Day 1 and cells were analyzed on Day 4. For intracellular cytokine staining, cells were incubated for 5 h with phorbol ester (50 ng/ml; Sigma), ionomycin (500 ng/ml; Sigma) and GolgiStop (BD). When needed, surfaces were stained by incubation for 15 min on ice with PECy7-conjugated CD4 (BD Biosciences). The Cytofix/Cytoperm buffer set (BD) was used for intracellular staining. Cells were fixed and made permeable for 30 min on ice and were stained for 30 min on ice in permeabilization buffer with Alexa647-conjugated anti-IL17a (eBioscience) and PE-conjugated anti-IFNg (eBioscience). An LSR II (BD Biosciences) and FlowJo software (Tree Star) were used for flow cytometry. RORg IC50 value acquired from the S2 cell reporter assay is listed for comparison.
as §1, with “With respect to the methodological details pertaining to FIG. 1, naive” for “Percentage of DMSO treated IL-17a producing cells was set at 100. Naive mouse”, “(BD).” for “(BD). When needed, surfaces were stained by incubation for 15 min on ice with PECy7-conjugated CD4 (BD Biosciences).”, “anti-IFNγ” for “anti-IFNg”, “cytometry.” for “cytometry. RORg IC50 value acquired from the S2 cell reporter assay is listed for comparison.”

[3] = test system: human Th17 cell differentiation; assay: Human Th17 cell differentiation (FACS, FIG. 2); settings: FIG. 2, FACS, 0.5 μM
Experimental: • 1) S2 cell reporter system: Identified hits from HTS are further screened and their specificity confirmed by testing against RORγ-luc, VP16-luc, RORα-luc, and DHR3-luc reporter S2 cell lines. Compounds either having no activity on VP16, RORα, and DHR3 or having ten times higher IC50 values on such reporters are selected for further tests. • 2) Cytokine induced mouse Th17 cells differentiation. Effects on mouse endogenous RORγt in a relevant physiological setting were determined by testing compounds in the Th17 cell differentiation assay. Compounds having RORγt inhibitory activity are predicted to suppress Th17 cell differentiation. Th1 or regulatory T cell differentiation was used as a counter-screen method to select specific compounds that only affect Th17 cell differentiation without having pleiotrophic effects on general T cell proliferation or cytokine production. • 3) ROR dependent Th17 cell differentiation. Compounds were further tested, by examining their effects on T cells expressing RORα or RORγ. […] Compounds affecting IL17a production or ROR regulatory pathways, however, are expected to inhibit both. • 4) Human Th17 cell differentiation. Compound effects on human RORγt will be tested by treating human cord blood CD4 T cells with select compounds to determine if such compounds alter differentiation into Th17 lineages.
(§2) For Th1 differentiation, IL12 (10 ng/ml) and IL2 (100 U/ml) were added to naive CD4 T cell cultures instead of TGFβ and IL6.

[4] = test system: human Th1 cell differentiation; assay: Human Th1 cell differentiation, IFNγ production (counter-screen, FIG. 2); settings: FIG. 2, FACS, 0.5 μM, naive CD4 T cells, IL12 and IL2
Experimental: as §2

RORγt [5] = assay: RORγt overexpression dependent IL17a production in human CD4 T cells (FIG. 3); settings: FIG. 3, FACS, 0.5 μM
Experimental: (§3) Briefly, CD3+ CD4+ CD45RA+ naive human T cells were isolated from peripheral blood derived from healthy donors. The naive T cells were cultured in XVIVO-20 (Lonza) medium for 7 days in the presence of IL2 and stimulatory CD3 and CD28 antibodies. Cells were infected with lentivirus encoding human RORα or RORγ and compound or DMSO was added on day 2. FACS plot analysis is shown after gating on GFP expressing (virus infected) cells.

RORα = RORα overexpression dependent IL17a production in human CD4 T cells (FIG. 3); settings: FIG. 3, FACS, 0.5 μM; listed as NCGC00238427
Experimental: as §3

Row | Structure (SMILES) | Emax (RORγt [1]; Table 1, % of the maximal response of control inhibitor (Digoxin), set at 100%, read-out: Efficacy (%)) [%] | IC50 (RORγt [1]; Table 1, Drosophila S2 cells, luciferase reporter, read-out: IC50) [µM] | IC50 (RORγt [1]; Table 2, from the S2 cell reporter assay, listed for comparison, read-out: S2 cell RORg IC50) [µM] | IC50 [2] [µM] | human Th17 cell differentiation [3] | Th1 cell differentiation, as measured by IFNγ production [4] | RORγt overexpression dependent IL17a production in human CD4 T cells (RORγt [5]) | mouse Th17 cell differentiation, as measured by IL17a production ([2]; FIG. 1, FACS, at the indicated concentrations) | human Th17 cell differentiation ([3]; listed as NCGC00238427) | Th1 cell differentiation, as measured by IFNγ production ([4]; listed as NCGC00238427) | RORγt overexpression dependent IL17a production in human CD4 T cells (RORγt [5]; listed as NCGC00238427) | RORα overexpression dependent IL17a production in human CD4 T cells (RORα)
1 | COc1cc(O)c(C(CC(=O)N2CC(C)CC(C)C2)c2cccc(C(=O)O)c2)c(OC)c1 (stereo not shown) [Compound 101, 3-(3-(3,5-Dimethylpiperidin-1-yl)-1-(2-hydroxy-4,6-dimethoxyphenyl)-3-oxopropyl)benzoic acid] | 88.7 | 1 to 10 | 1 to 10 | > 20 | neither of which exhibits the ability to suppress human Th17 or Th1 cell differentiation | neither of which exhibits the ability to suppress human Th17 or Th1 cell differentiation | neither of which exhibits the ability to inhibit RORγt dependent human Th17 cell differentiation | – | – | – | – | –
2 | COc1cc(O)c(C(CC(=O)N2CC(C)CC(C)C2)c2ccc3c(c2)OCO3)c(OC)c1 (stereo not shown) [RC1, reference compound] | – | – | – | 1 to 10 | – | – | – | suppress mouse Th17 cell differentiation | selectively suppress human Th17; also recorded: selectively suppresses human Th17 cell differentiation | does not inhibit Th1 cell differentiation | selectively inhibit RORγt dependent; also recorded: selectively inhibits RORγt overexpression dependent IL17a production | unaffected
